Some test systems named below: M14; CCRF-CEM; IGROV-1; NCI-H460; OVCAR-8; HCT-116; OVCAR-3; HCT-15; SK-OV-3; UACC-257; OVCAR-5; SNB-75; HOP-92; UO-31; DLD-1; A498; SW-620; BT-549; MDA-MB-435.
Holding throughout (assay): growth of human tumour cells (NCI), 48 h

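1) Cells in 96-well plates. 2) Compound, 48 h, 5 concentrations. 3) Linear interpolation between surrounding doses. 4) Unreached endpoint = highest concentration. GI50 = concentration required for 50% inhibition of growth.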 The source made the active and inactive calls. Rule as the data show it: active = GI50 up to about 1.1 µM and inactive = higher.

Turning to `O=C(O)CCC(NC(=O)c1ccccc1)C(=O)O` (centres undefined), the GI50 with M14 is > 100 µM (inactive); in the assay with CCRF-CEM it was > 100 µM (inactive); with IGROV-1, > 100 µM (inactive); with NCI-H460, > 100 µM (inactive); in the assay with OVCAR-8, > 100 µM (inactive); in the assay with HCT-116 it was 58.7 µM (inactive). For the same compound, the GI50 in the assay with OVCAR-3 is > 100 µM (inactive); in the assay on HCT-15, more than 100 µM; in the assay with SK-OV-3 it was > 100 µM (inactive); in the assay on UACC-257 it was > 100 µM (inactive); with OVCAR-5, > 100 µM (inactive); in the assay with SNB-75, > 100 µM (inactive). Besides, the GI50 in the assay with HOP-92 was > 100 µM (inactive); in the assay with UO-31, > 100 µM (inactive); in the assay on DLD-1 it was > 100 µM (inactive); in the assay on A498 it was > 100 µM (inactive); with SW-620 it was 42.3 µM (inactive).

For the compound `COc1ccccc1/C=C1\CCC(CNc2ccc(Cl)cc2)C1=O` (centres undefined), the GI50 in the assay on M14 is 0.242 µM (active); in the assay on CCRF-CEM, 1.68 µM (inactive); with IGROV-1, 5.83 µM (inactive); in the assay on NCI-H460 it was 1.43 µM (inactive); with OVCAR-8, 3.46 µM (inactive); in the assay with HCT-116 it was 4.38 µM (inactive). In addition, the GI50 in the assay on OVCAR-3 is 10.2 µM (inactive); in the assay with HCT-15 it was 1.41 µM; with SK-OV-3, 1.73 µM (inactive); in the assay with UACC-257 it was 13.8 µM (inactive); in the assay with OVCAR-5, 10.6 µM (inactive); in the assay with SNB-75 it was 15 µM (inactive). Moreover, the GI50 in the assay on HOP-92 is 16.4 µM (inactive); in the assay on UO-31 it was 3.18 µM (inactive); in the assay with DLD-1 it was 1.31 µM (inactive); in the assay with A498, 13.8 µM (inactive); in the assay on SW-620 it was 2.09 µM (inactive).

Turning to `COc1ccc(N2C(=O)C(N3C(=O)C=CC3=O)C2C=O)cc1` (centres undefined), the GI50 in the assay with M14, with CCRF-CEM, in the assay with IGROV-1, with NCI-H460, in the assay with OVCAR-8 and with HCT-116 was > 100 µM (inactive) throughout. The GI50 in the assay with OVCAR-3 was > 100 µM (inactive); in the assay on HCT-15, more than 100 µM; with SK-OV-3, > 100 µM (inactive); in the assay on UACC-257, > 100 µM (inactive); in the assay on OVCAR-5, > 100 µM (inactive); with SNB-75, > 100 µM (inactive). In addition, the GI50 in the assay on HOP-92, in the assay on UO-31, with DLD-1, with A498 and in the assay on SW-620 was > 100 µM (inactive) throughout.

Consider `COC(=O)C1C2CC3C(OC(=O)C31)C2OC(=O)[C@](OC)(c1ccccc1)C(F)(F)F` (some centres undefined), for which the GI50 in the assay on M14, in the assay with CCRF-CEM, in the assay on IGROV-1, in the assay with NCI-H460, with OVCAR-8 and in the assay on HCT-116 was > 100 µM (inactive) in each case. Besides, the GI50 in the assay with OVCAR-3 was > 100 µM (inactive); in the assay on HCT-15, more than 100 µM; in the assay on SK-OV-3, > 100 µM (inactive); in the assay on UACC-257, > 100 µM (inactive); in the assay on OVCAR-5 it was > 100 µM (inactive); in the assay on SNB-75, > 100 µM (inactive). The GI50 with HOP-92, in the assay with UO-31, in the assay with DLD-1, in the assay on A498 and in the assay on SW-620 was > 100 µM (inactive) each time.

Regarding `O=C1c2ccccc2C(=O)N1CCn1ccc(NC(c2ccccc2)(c2ccccc2)c2ccccc2)nc1=O`, the GI50 with M14 was 22 µM (inactive); with CCRF-CEM it was 20.1 µM (inactive); with IGROV-1, 22.2 µM (inactive); with NCI-H460, 23.6 µM (inactive); in the assay with OVCAR-8 it was 36.7 µM (inactive); with HCT-116, 17.5 µM (inactive). For the same compound, the GI50 in the assay on OVCAR-3 is 24.3 µM (inactive); in the assay on HCT-15 it was 22.5 µM; in the assay on SK-OV-3, 43.8 µM (inactive); in the assay on UACC-257, 18 µM (inactive); with OVCAR-5, 25.1 µM (inactive); in the assay with SNB-75, 21.8 µM (inactive). Also, the GI50 is 18.5 µM (inactive) with HOP-92; 21.2 µM (inactive) with UO-31; 19.1 µM (inactive) with DLD-1; 18.2 µM (inactive) in the assay on A498; 29.3 µM (inactive) with SW-620.

Turning to `CCN(CC)CC(=O)N1CCc2c([nH]c3ccccc23)C1c1cccnc1` (centres undefined), the GI50 in the assay with M14, with CCRF-CEM, with IGROV-1, in the assay on NCI-H460, in the assay on OVCAR-8 and with HCT-116 was > 100 µM (inactive) in each case. Also, the GI50 was > 100 µM (inactive) with OVCAR-3; more than 100 µM in the assay on HCT-15; > 100 µM (inactive) with SK-OV-3; > 100 µM (inactive) with UACC-257; > 100 µM (inactive) with OVCAR-5; 73.6 µM (inactive) in the assay with SNB-75. In addition, the GI50 is 31.4 µM (inactive) in the assay on HOP-92; 26.9 µM (inactive) in the assay with UO-31; > 100 µM (inactive) with DLD-1; > 100 µM (inactive) with A498; > 100 µM (inactive) with SW-620.

For `O=C(c1ccccc1)c1nc2ccc(Cl)cc2cc1C(Br)Br`, the GI50 is 0.144 µM (active) in the assay on BT-549; 1.72 µM (inactive) in the assay on M14; 0.395 µM (active) with CCRF-CEM; 0.735 µM (active) in the assay on IGROV-1; 0.281 µM (active) in the assay with NCI-H460; 0.242 µM (active) with OVCAR-8. For the same compound, the GI50 was 0.108 µM (active) in the assay with HCT-116; 0.282 µM (active) in the assay with MDA-MB-435; 0.326 µM (active) in the assay with OVCAR-3; 0.31 µM with HCT-15; 0.605 µM (active) with SK-OV-3; 0.525 µM (active) in the assay on UACC-257. Moreover, the GI50 in the assay on OVCAR-5 is 0.519 µM (active); with SNB-75 it was 0.278 µM (active); in the assay on HOP-92, 0.527 µM (active); in the assay on UO-31, 0.385 µM (active); with DLD-1 it was 0.203 µM (active); in the assay on A498 it was 1.79 µM (inactive). Also, in the assay with SW-620, the GI50 is 0.185 µM (active).

Regarding `CCN(CC)CCCN1CCc2c([nH]c3ccccc23)C1c1cccnc1` (centres undefined), the GI50 in the assay on M14 was 61.2 µM (inactive); in the assay with CCRF-CEM, > 100 µM (inactive); in the assay on IGROV-1, > 100 µM (inactive); with NCI-H460, > 100 µM (inactive); with OVCAR-8, > 100 µM (inactive); with HCT-116, > 100 µM (inactive). The GI50 was 88.3 µM (inactive) in the assay with OVCAR-3; more than 100 µM with HCT-15; > 100 µM (inactive) with SK-OV-3; 42.8 µM (inactive) in the assay on UACC-257; > 100 µM (inactive) with OVCAR-5; > 100 µM (inactive) with SNB-75. Moreover, the GI50 in the assay on HOP-92 was 29.2 µM (inactive); with UO-31 it was 83.9 µM (inactive); in the assay with DLD-1, > 100 µM (inactive); in the assay with A498, > 100 µM (inactive); in the assay on SW-620 it was > 100 µM (inactive).

Take `COc1cc([C@@H]2c3cc4c(cc3[C@@H](NCc3cccc(F)c3)C3COC(=O)[C@@H]32)OCO4)cc(OC)c1O` (some centres undefined): the GI50 is 4.9 µM (inactive) in the assay with M14; 1.27 µM (inactive) in the assay on CCRF-CEM; 3.18 µM (inactive) in the assay with IGROV-1; 0.37 µM (active) with NCI-H460; 6.53 µM (inactive) in the assay with OVCAR-8; 4.5 µM (inactive) in the assay on HCT-116. The GI50 is 12.2 µM (inactive) with OVCAR-3; 3.57 µM with HCT-15; 4.19 µM (inactive) in the assay on SK-OV-3; 10.8 µM (inactive) in the assay with UACC-257; 13.9 µM (inactive) with OVCAR-5; 1.95 µM (inactive) in the assay with SNB-75. Also, the GI50 is 7.53 µM (inactive) in the assay with HOP-92; 5.57 µM (inactive) in the assay on UO-31; 9.71 µM (inactive) with DLD-1; 2.68 µM (inactive) with A498; 5.06 µM (inactive) in the assay on SW-620.

`COc1cc(C[S+]2CCCC2)c(SC)cc1C[S+]1CCCC1`: the GI50 in the assay on M14, in the assay on CCRF-CEM, in the assay with IGROV-1, with NCI-H460, in the assay with OVCAR-8 and in the assay on HCT-116 was > 100 µM (inactive) throughout. The GI50 is > 100 µM (inactive) with OVCAR-3; more than 100 µM in the assay with HCT-15; > 100 µM (inactive) with SK-OV-3; > 100 µM (inactive) with UACC-257; > 100 µM (inactive) with OVCAR-5; 47.4 µM (inactive) with SNB-75. The GI50 in the assay with HOP-92, with UO-31, in the assay on DLD-1, with A498 and in the assay with SW-620 was > 100 µM (inactive) throughout.

On to `CC(=O)O[C@H]1[C@H](O[C@H]2CC[C@]34C[C@]35CC[C@]3(C)[C@@H]([C@@]6(C)CC[C@@H](C(C)(C)O)O6)[C@@H](O)C[C@@]3(C)[C@@H]5C[C@H](O[C@@H]3O[C@H](CO)[C@@H](O)[C@H](O)[C@H]3O)[C@H]4C2(C)C)OC[C@@H](O)[C@@H]1O`, for which the GI50 was 54.6 µM (inactive) with M14; 31.6 µM (inactive) in the assay with CCRF-CEM; > 100 µM (inactive) in the assay on IGROV-1; 71 µM (inactive) in the assay with NCI-H460; > 100 µM (inactive) with OVCAR-8; > 100 µM (inactive) in the assay on HCT-116. The GI50 is > 100 µM (inactive) with OVCAR-3; 42.2 µM in the assay with HCT-15; > 100 µM (inactive) in the assay with SK-OV-3; > 100 µM (inactive) in the assay with UACC-257; 72.6 µM (inactive) with OVCAR-5; > 100 µM (inactive) in the assay on SNB-75. Further, the GI50 in the assay with HOP-92 was > 100 µM (inactive); in the assay on UO-31, > 100 µM (inactive); in the assay on DLD-1, 71.1 µM (inactive); with A498, > 100 µM (inactive); in the assay with SW-620 it was 25.4 µM (inactive).

Values taken from ChEMBL document CHEMBL1201862, “PubChem BioAssay data set” (2004).
